Measured values reported in ChEMBL document CHEMBL3044826, “Design, synthesis and biological evaluation of some novel substituted 2-mercapto-3-phenethylquinazolines as antitumor agents” (2013).

Key:
Format in all cases: functional
HCC 2998 = assay: Cytotoxicity against Homo sapiens (human) HCC2998 cells assessed as growth inhibition at 10 uM after 48 hr by coulter counter analysis; conditions: HCC 2998, 48 h, read-out: GI
NCI-H226 = assay: Cytotoxicity against Homo sapiens (human) NCI-H226 cells assessed as growth inhibition at 10 uM after 48 hr by coulter counter analysis; conditions: NCI-H226, 48 h, read-out: GI
SN12C = assay: Cytotoxicity against Homo sapiens (human) SN12C cells assessed as growth inhibition at 10 uM after 48 hr by coulter counter analysis; conditions: read-out: GI
NCI-H522 = assay: Cytotoxicity against Homo sapiens (human) NCI-H522 cells assessed as growth inhibition at 10 uM after 48 hr by coulter counter analysis; conditions: NCI-H522, 48 h, read-out: GI
Hs-578T = assay: Cytotoxicity against Homo sapiens (human) Hs578T cells assessed as growth inhibition at 10 uM after 48 hr by coulter counter analysis; conditions: read-out: GI
HL-60(TB) = assay: Cytotoxicity against Homo sapiens (human) HL-60(TB) cells assessed as growth inhibition at 10 uM after 48 hr by coulter counter analysis; conditions: HL-60, 48 h, read-out: GI
A549 = assay: Cytotoxicity against Homo sapiens (human) A549 cells assessed as growth inhibition at 10 uM after 48 hr by coulter counter analysis; conditions: A549, 48 h, read-out: GI
BT-549 = assay: Cytotoxicity against Homo sapiens (human) BT549 cells assessed as growth inhibition at 10 uM after 48 hr by coulter counter analysis; conditions: BT-549, 48 h, read-out: GI
MOLT-4 = assay: Cytotoxicity against Homo sapiens (human) MOLT4 cells assessed as growth inhibition at 10 uM after 48 hr by coulter counter analysis; conditions: MOLT-4, 48 h, read-out: GI
U-251 = assay: Cytotoxicity against Homo sapiens (human) U251 cells assessed as growth inhibition at 10 uM after 48 hr by coulter counter analysis; conditions: U-251, 48 h, read-out: GI
SK-MEL-5 = assay: Cytotoxicity against Homo sapiens (human) SK-MEL-5 cells assessed as growth inhibition at 10 uM after 48 hr by coulter counter analysis; conditions: SK-MEL-5, 48 h, read-out: GI
MDA-MB-435 = assay: Cytotoxicity against Homo sapiens (human) MDA-MB-435 cells assessed as growth inhibition at 10 uM after 48 hr by coulter counter analysis; conditions: MDA-MB-435, 48 h, read-out: GI
UACC-257 = assay: Cytotoxicity against Homo sapiens (human) UACC257 cells assessed as growth inhibition at 10 uM after 48 hr by coulter counter analysis; conditions: UACC-257, 48 h, read-out: GI
T47D = assay: Cytotoxicity against Homo sapiens (human) T47D cells assessed as growth inhibition at 10 uM after 48 hr by coulter counter analysis; conditions: read-out: GI
786-0 = assay: Cytotoxicity against Homo sapiens (human) 786-0 cells assessed as growth inhibition at 10 uM after 48 hr by coulter counter analysis; conditions: 786-0, 48 h, read-out: GI
NCI-H460 = assay: Cytotoxicity against Homo sapiens (human) NCI-H460 cells assessed as growth inhibition at 10 uM after 48 hr by coulter counter analysis; conditions: NCI-H460, 48 h, read-out: GI
EKVX = assay: Cytotoxicity against Homo sapiens (human) EKVX cells assessed as growth inhibition at 10 uM after 48 hr by coulter counter analysis; conditions: read-out: GI
CCRF-CEM = assay: Cytotoxicity against Homo sapiens (human) CCRF-CEM cells assessed as growth inhibition at 10 uM after 48 hr by coulter counter analysis; conditions: read-out: GI
SNB-75 = assay: Cytotoxicity against Homo sapiens (human) SNB75 cells assessed as growth inhibition at 10 uM after 48 hr by coulter counter analysis; conditions: SNB-75, 48 h, read-out: GI
A498 = assay: Cytotoxicity against Homo sapiens (human) A498 cells assessed as growth inhibition at 10 uM after 48 hr by coulter counter analysis; conditions: A498, 48 h, read-out: GI
HOP-62 = assay: Cytotoxicity against Homo sapiens (human) HOP62 cells assessed as growth inhibition at 10 uM after 48 hr by coulter counter analysis; conditions: HOP-62, 48 h, read-out: GI

## O=c1c2ccccc2[nH]c(=S)n1CCc1ccccc1
HCC 2998
  inhibition of growth at 10 µM: < 10%
NCI-H226
  inhibition of growth at 10 µM: < 10%
SN12C
  inhibition of growth at 10 µM: < 10%
NCI-H522
  inhibition of growth at 10 µM: < 10%
Hs-578T
  inhibition of growth at 10 µM: < 10%
HL-60(TB)
  inhibition of growth at 10 µM: 11%
A549
  inhibition of growth at 10 µM: < 10%
BT-549
  inhibition of growth at 10 µM: < 10%
MOLT-4
  inhibition of growth at 10 µM: 23%
U-251
  inhibition of growth at 10 µM: < 10%
SK-MEL-5
  inhibition of growth at 10 µM: 13%
MDA-MB-435
  inhibition of growth at 10 µM: < 10%
UACC-257
  inhibition of growth at 10 µM: < 10%
T47D
  inhibition of growth at 10 µM: < 10%
786-0
  inhibition of growth at 10 µM: < 10%
NCI-H460
  inhibition of growth at 10 µM: < 10%
EKVX
  inhibition of growth at 10 µM: 18%
CCRF-CEM
  inhibition of growth at 10 µM: 16%
SNB-75
  inhibition of growth at 10 µM: < 10%
A498
  inhibition of growth at 10 µM: 46%
HOP-62
  inhibition of growth at 10 µM: 26%

## O=C(CSc1nc2ccccc2c(=O)n1CCc1ccccc1)c1ccc(F)cc1
HCC 2998
  inhibition of growth at 10 µM: < 10%
NCI-H226
  inhibition of growth at 10 µM: < 10%
SN12C
  inhibition of growth at 10 µM: < 10%
NCI-H522
  inhibition of growth at 10 µM: < 10%
Hs-578T
  inhibition of growth at 10 µM: 25%
A549
  inhibition of growth at 10 µM: 11%
BT-549
  inhibition of growth at 10 µM: < 10%
U-251
  inhibition of growth at 10 µM: 19%
SK-MEL-5
  inhibition of growth at 10 µM: < 10%
MDA-MB-435
  inhibition of growth at 10 µM: < 10%
UACC-257
  inhibition of growth at 10 µM: < 10%
T47D
  inhibition of growth at 10 µM: 18%
786-0
  inhibition of growth at 10 µM: 32%
NCI-H460
  inhibition of growth at 10 µM: < 10%
EKVX
  inhibition of growth at 10 µM: 16%
SNB-75
  inhibition of growth at 10 µM: < 10%
A498
  inhibition of growth at 10 µM: < 10%
HOP-62
  inhibition of growth at 10 µM: < 10%

## CSc1nc2ccccc2c(=O)n1CCc1ccccc1
HCC 2998
  inhibition of growth at 10 µM: < 10%
NCI-H226
  inhibition of growth at 10 µM: 11%
SN12C
  inhibition of growth at 10 µM: < 10%
NCI-H522
  inhibition of growth at 10 µM: < 10%
Hs-578T
  inhibition of growth at 10 µM: 14%
A549
  inhibition of growth at 10 µM: 12%
BT-549
  inhibition of growth at 10 µM: < 10%
U-251
  inhibition of growth at 10 µM: 12%
SK-MEL-5
  inhibition of growth at 10 µM: 19%
MDA-MB-435
  inhibition of growth at 10 µM: 47%
UACC-257
  inhibition of growth at 10 µM: < 10%
T47D
  inhibition of growth at 10 µM: 59%
NCI-H460
  inhibition of growth at 10 µM: < 10%
EKVX
  inhibition of growth at 10 µM: 29%
SNB-75
  inhibition of growth at 10 µM: < 10%
A498
  inhibition of growth at 10 µM: 18%
HOP-62
  inhibition of growth at 10 µM: 12%

## O=c1c2ccccc2nc(SCCN2CCOCC2)n1CCc1ccccc1
HCC 2998
  inhibition of growth at 10 µM: < 10%
NCI-H226
  inhibition of growth at 10 µM: < 10%
SN12C
  inhibition of growth at 10 µM: < 10%
NCI-H522
  inhibition of growth at 10 µM: < 10%
Hs-578T
  inhibition of growth at 10 µM: < 10%
A549
  inhibition of growth at 10 µM: < 10%
BT-549
  inhibition of growth at 10 µM: < 10%
U-251
  inhibition of growth at 10 µM: < 10%
SK-MEL-5
  inhibition of growth at 10 µM: < 10%
MDA-MB-435
  inhibition of growth at 10 µM: < 10%
UACC-257
  inhibition of growth at 10 µM: < 10%
786-0
  inhibition of growth at 10 µM: < 10%
NCI-H460
  inhibition of growth at 10 µM: < 10%
EKVX
  inhibition of growth at 10 µM: < 10%
SNB-75
  inhibition of growth at 10 µM: < 10%
A498
  inhibition of growth at 10 µM: < 10%
HOP-62
  inhibition of growth at 10 µM: < 10%

## O=C1c2ccccc2C(=O)N1CCCSc1nc2ccccc2c(=O)n1CCc1ccccc1
HCC 2998
  inhibition of growth at 10 µM: < 10%
NCI-H226
  inhibition of growth at 10 µM: < 10%
SN12C
  inhibition of growth at 10 µM: < 10%
NCI-H522
  inhibition of growth at 10 µM: 13%
A549
  inhibition of growth at 10 µM: 18%
BT-549
  inhibition of growth at 10 µM: < 10%
U-251
  inhibition of growth at 10 µM: 15%
SK-MEL-5
  inhibition of growth at 10 µM: 43%
MDA-MB-435
  inhibition of growth at 10 µM: < 10%
UACC-257
  inhibition of growth at 10 µM: < 10%
T47D
  inhibition of growth at 10 µM: 30%
786-0
  inhibition of growth at 10 µM: 13%
NCI-H460
  inhibition of growth at 10 µM: < 10%
EKVX
  inhibition of growth at 10 µM: 16%
SNB-75
  inhibition of growth at 10 µM: < 10%
A498
  inhibition of growth at 10 µM: 20%
HOP-62
  inhibition of growth at 10 µM: < 10%
